Entries after “also recorded” stand apart in the source; their conditions may differ. Structures can show the parent of a compound that is named as a salt.
Key:
[1] = tested on: variety of cell types; settings: cited from earlier work
[2] = tested on: CPP32; test: Apaf-2 activity: recombining with phosphocellulose flow through fraction (Apaf-1) and 35S-labeled CPP32; type: biochemical, human; settings: 0.2 μg protein with phosphocellulose flowthrough fraction, 1 mM dATP
Procedure: FIG. 3 illustrates fractionation and reconstitution of dATP-dependent activation of CPP32 by phosphocellulose chromatography. HeLa cell S-100 was subjected to phosphocellulose chromatography and the column flow through and bound material were collected as described in the Examples. Aliquots (10 μl) of HeLa S-100 (50 μg) (lanes 1 and 2), phosphocellulose flow through fraction (PC-FT) (lanes 3 and 4), phosphocellulose bound fraction (PC-B) (lanes 5 and 6), and the mixture of phosphocellulose flow through and bound material (lanes 7 and 8) were incubated with aliquots of 3 μl in vitro translated, ^35S-labeled CPP32 at 30° C. for 1 hr in the absence (lanes 1,3,5,7) or presence (lanes 2,4,6,8) of 1 mM dATP. The samples were subjected to SDS-PAGE, transferred to a nitrocellulose filter, and the filter was exposed to film for 16 hours at room temperature.
The Apaf-2 activity that bound to the phosphocellulose column was purified through the Mono S column as described in Example 7. […] In FIG. 4B, aliquots (30 μl) of the Mono-S fractions were subjected to 15% SDS-PAGE and the proteins were visualized by silver staining.
Aliquots of 0.2 μg of Apaf-2 purified through the Mono S column (lanes 1, 2), cytochrome c from bovine heart (lanes 3, 4), and rat liver (lanes 5, 6) were incubated with aliquots of 10 μl phosphocellulose flowthrough fraction and 3 μl in vitro translated, 35S-labeled CPP32 at 30° C. for 1 hr in a final volume of 20 μl buffer A in the absence (lanes 1,3,5) or presence of (lanes 2, 4, 6) 1 mM dATP. Samples were subjected to SDS-PAGE and transferred to a nitrocellulose filter which was then exposed to a film for 16 hr at room temperature.
To isolate the protein(s) required for the activation of CPP32, HeLa S-100 was loaded onto a phosphocellulose column, and the flow-through and bound fractions were collected. […] When the flowthrough and bound fractions were mixed, CPP32-activating activity was restored (lanes 7-8). […] The factor(s) that flow through the phosphocellulose column are designated apoptotic protease activating factor-1 (Apaf-1) and the factor that bound to the column is designated apoptotic protease activating factor-2 (Apaf-2). It is understood that “Apaf-1” may represent more than one protein or it may represent a combination of protein(s) and other factors.
Apaf-2 activity was assayed by recombining with Apaf-1 after purification by the following steps. First, the Apaf-2 fraction was subjected to 50% ammonium sulfate precipitation. All of the activity remained in the supernatant while most of the protein precipitated (Table I). The supernatant was loaded onto a phenyl-sepharose (hydrophobic interaction) column and the activity was eluted with 1 M ammonium sulfate. The eluate was passed through a gel filtration column; active fractions were subjected to sequential Mono Q (anion exchange) and Mono S (cation exchange) chromatography. The Apaf-2 activity flowed through the Mono Q column, and the flow through was directly loaded onto the Mono S column. Bound Apaf-2 activity was then eluted with a 100-300 mM NaCl linear salt gradient. The fractions from the Mono S column were collected and assayed. […] The active fractions were analyzed by SDS-PAGE (FIG. 4B). A protein of apparent molecular mass of 15 kDa was co-eluted with the activity. No other proteins were detected by silver staining in the active Apaf-2 fractions.
CPP32 was translated and purified as described above. […]

[3] = tested on: CPP32; test: Reconstitution of dATP-dependent CPP32 activation in HeLa S-100 immunodepleted of cytochrome c; type: biochemical, human; settings: 0.2 μg added to immunodepleted HeLa S-100, 1 mM dATP
Procedure: (§1) Cytochrome c present in the HeLa cell S-100 was immunodepleted as described in the Example 10. In FIG. 7A, 10 μl aliquots of HeLa S-100 (50 μg) (lanes 1 and 2), or 10 μl aliquots of HeLa S-100 immunodepleted of cytochrome c (lanes 3 and 4), or 10 μl of HeLa S-100 immunodepleted of cytochrome c supplemented with 0.2 μg Apaf-2 purified through the Mono S column (H) (lanes 5 and 6), bovine heart cytochrome c (B) (lanes 7 and 8), or rat liver cytochrome c (R) (lanes 9 and 10), were incubated with aliquots of 3 μl in vitro translated, ^35S-labeled CPP32 in the absence (lanes 1, 3, 5, 7, 9) or presence (lanes 2, 4, 6, 8, 10) of 1 mM dATP at 30° C. for 1 hr in a final reaction volume of 20 μl of buffer A. Samples were subjected to SDS-PAGE and transferred to a nitrocellulose filter which were then exposed to film for 16 hr at room temperature. In FIG. 7B, HeLa S-100 (50 μg) immunodepleted of cytochrome c were reconstituted with the indicated amount of Apaf-2 (purified through Mono S column step) in a CPP32 cleavage reaction as described in FIG. 7A. The cleaved products (p20) were quantified in a Fuji-1000 phosphorimager machine and plotted in comparison with that generated by HeLa S-100. In FIG. 7C, aliquots of 50 μl of HeLa S-100 (250 μg) (lanes 1 and 2), or 50 μl of HeLa S-100 immunodepleted of cytochrome c (lanes 3 and 4), or 50 μl of HeLa S-100 immunodepleted of cytochrome c supplemented with 1 μg apaf-2 purified through the Mono S column (H) (lanes 5 and 6), bovine heart cytochrome c (B) (lanes 7 and 8), or rat liver cytochrome c (R) (lanes 9 and 10), were incubated with aliquots of 6 μl hamster liver nuclei in the absence (lanes 1, 3, 5, 7, 9) or presence (lanes 2, 4, 6, 8, 10) of 1 mM dATP at 37° C. for 2 hr in a final reaction volume of 60 μl. The DNA were isolated as described in the Examples, analyzed on 2% agarose gel electrophoresis, and the DNA was visualized by ethidium bromide staining. In FIG. 7D, DNA fragmentation assays were carried out as in FIG. 7C using HeLa S-100 immunodepleted of cytochrome c alone (a,b) or supplemented with Apaf-2 purified through Mono S column step (c,d) in the absence (a,c) or presence of 1 mM dATP (b,d). After 2 hr incubation at 37° C., an aliquot of each reaction (30 μl) was stained with 4′,6′-diamidino-2-phenylindole (DAPI), and observed under a fluorescence microscope with a UV-2A combination filter.
To rule out the possibility that the Apaf-2 activity is due to a minor contaminating protein that co-purified with cytochrome c, an immunodepletion experiment was carried out using a monoclonal antibody against rat cytochrome c. This monoclonal antibody cross-reacts with purified Apaf-2. As shown in FIGS. 7A-7D, HeLa cell S-100 depleted of cytochrome c using the monoclonal anti-cytochrome c antibody lost the dATP-dependent activation of CPP32 and the ability to induce DNA fragmentation in the added nuclei (FIGS. 7A and 7C, lanes 3 and 4). Adding back either the purified Apaf-2 from HeLa cells or the commercial cytochrome c from bovine heart or rat liver to the immunodepleted extracts restored the dATP-dependent activation of CPP32 and DNA fragmentation (FIGS. 7A and 7C, lanes 5-10). The reconstitution of cytochrome c dependent-activation of CPP32 was evident with the addition of 0.01 μg (33 nM) of purified cytochrome c to the cytochrome c-depleted extracts (FIG. 7B).
CPP32 was translated and purified as described above. Aliquot of 3 μl of the in vitro translated CPP32 was incubated with the indicated protein fraction, nucleotides, and 1 mM additional MgCl2 at 30° C. for 1 hour in a final volume of 20 μl of buffer A. At the end of the incubation, 7 μl of 4×SDS sample buffer was added to each reaction. After boiling for 3 min, each sample was subjected to a 15% SDS-polyacrylamide gel electrophoresis (SDS-PAGE). The gel was transferred to a nitrocellulose filter which was subsequently exposed to a Kodak X-OMAT AR X-ray film (Eastman Kodak, Rochester, N.Y.) for 16 hr at room temperature. […]

[4] = tested on: hamster liver nuclei; test: Reconstitution of DNA fragmentation and nuclear morphological change in HeLa S-100 immunodepleted of cytochrome c; type: biochemical; settings: 1 μg added to immunodepleted HeLa S-100, 1 mM dATP
Procedure: as §1
To rule out the possibility that the Apaf-2 activity is due to a minor contaminating protein that co-purified with cytochrome c, an immunodepletion experiment was carried out using a monoclonal antibody against rat cytochrome c. This monoclonal antibody cross-reacts with purified Apaf-2. […]

Compound | initiation of apoptosis [1] | Apaf-2 activity (dATP-dependent activation of CPP32) [2] | restoration of dATP-dependent activation of CPP32 [3] | restoration of DNA fragmentation [4]
O=C1c2c(O)ccc(O)c2C(=O)c2c(NCCNCCO)ccc(NCCNCCO)c21 [mitoxantrone HCl] | act to initiate apoptosis |  |  | 
COc1cc([C@@H]2c3cc4c(cc3[C@@H](O[C@@H]3O[C@@H]5CO[C@@H](C)O[C@H]5[C@H](O)[C@H]3O)[C@H]3COC(=O)[C@H]23)OCO4)cc(OC)c1O [etoposide] | act to initiate apoptosis |  |  | 
bovine heart cytochrome c: commercial cytochrome c from bovine heart (Sigma) |  | have Apaf-2 activity; also recorded: initiated dATP-dependent activation of CPP32 as efficiently as Apaf-2 | restored | restored
rat liver cytochrome c: commercial cytochrome c from rat liver (Sigma) |  | have Apaf-2 activity; also recorded: initiated dATP-dependent activation of CPP32 as efficiently as Apaf-2 | restored | restored

Source: patent publication US6558900B2, “Regulation of apoptosis and in vitro model for studies thereof” (Emory University, priority 1996, dated 2003)
